Consider two compounds from paper PMC12042267, “Expanding the Family of Monosubstituted 15-Membered Pyridine-Based Macrocyclic Ligands for Mn(II) Complexation in the Context of MRI” (Inorganic Chemistry, 2025).

The conditions of data set [1]: fixed during the fitting procedure ref 28; cited from earlier work.
A short description of data set [2]: Simultaneous analysis of 17O NMR and 1H NMRD data (Solomon-Bloembergen-Morgan). The class given is physicochemical. The protocol: ^1H NMRD profiles on aqueous solutions of MnL2 (cMn2+ = 0.98 mM; pH = 7.22) and MnL3 (cMn2+ = 0.96 mM; pH = 7.20) were recorded at 25 and 37 °C on a SMARTracer Fast Field Cycling NMR relaxometer (Stelar; 0.00024–0.24 T, 0.01–10 MHz ^1H Larmor frequency) and a WP80 NMR electromagnet adapted to variable-field measurements (Bruker; 0.47–1.88 T, 20–80 MHz ^1H Larmor frequency). The temperature was maintained by a gas flow and monitored by a VTC91 temperature control unit based on previous calibration with a Pt resistance temperature probe.
Variable-temperature ^17O NMR measurements of aqueous solutions of MnL2 (cMnL = 3.70 mmol·kg^–1, pH = 7.03) and MnL3 (cMnL = 3.72 mmol·kg^–1, pH = 7.2) were performed on a Bruker Avance III 400 MHz spectrometer (9.4 T, 54.2 MHz) in the temperature range 5–75 °C. The temperature was calculated after calibration with ethylene glycol and […]. Acidified water (HClO4, pH = 3.3) was used as a diamagnetic reference. The ^17O transverse relaxation times (T2) were obtained by using the CPMG spin–echo technique. To eliminate susceptibility contributions to the chemical shift, the sample was in a glass sphere placed in a 10 mm NMR tube. To improve the sensitivity, ^17O-enriched water (11.10% H2^17O, Cortecnet) was added to the solution to yield approximately 1% ^17O enrichment.
The ^17O NMR and NMRD data have been analyzed according to the Solomon–Bloembergen–Morgan theory of paramagnetic relaxation.[3] The least-squares fit was performed using Visualizeur/Optimiseur running on a MATLAB 8.3.0 (R2014a) platform.
^1H NMRD profiles were recorded at 25 and 37 °C in the magnetic field range 0.01–80 MHz (Figure 6, bottom). The reduced transverse ^17O relaxation rates were simultaneously fitted with ^1H NMRD data according to the Solomon–Bloembergen–Morgan theory (equations are given in SI). The fitted parameters are summarized in Table 6 and compared to those for seven-coordinate Mn(II) complexes of L1 and 15-pyN3O2 ligands, as well as of [Mn(H2O)6]^2+.
The shape of the ^1H NMRD curves reflects typical low-molecular-weight complexes. The profiles display one dispersion between 1 and 10 MHz as has been previously described for other complexes except [Mn(H2O)6]^2+.[49],[50] The hydration number of MnL2 and MnL3 was assumed in both cases to be q = 1 for a total coordination number of CN = 7, based on the X-ray crystal structure. In aqueous solution, the chloride or the acetonitrile that coordinates to Mn(II) in the solid state will be replaced by one water molecule to complete the coordination sphere of Mn(II). As it was described by Gale et al.,[51] the ^17O T2 values can also give an estimate of hydration number, provided the 1/T2r vs temperature curve has a maximum. This approach is not applicable for MnL2 and MnL3 since both systems are in the slow exchange regime in the entire temperature range studied. The lack of a fast exchange regime prevents the fit of the scalar coupling constant, A0/ℏ, as well which was therefore fixed to 38.6 MHz.[28]

Data set [3] is described as follows: Water solubility of complex samples. The data set is classed as physicochemical. Particulars: at the concentrations required for the measurements. The source says:
MnL2 and MnL3 complex samples for kinetic and relaxometric studies have been prepared by mixing MnCl2 and L2 or L3 solutions of known concentrations in a 1:1.05 ratio and by adjusting the pH to 7.4. Mn(II) concentration in each sample was verified by bulk magnetic susceptibility measurements.

Regarding `O.[Mn+2].c1ccc(CN2CCOCCOCCNCc3cccc(n3)C2)nc1` [MnL2], the “AO/ℏ (scalar coupling constant)” value in data set [1] is given as 38.6 ^e 10^6 rad s^–1. In data set [2], the “ErH (activation energy for the rotational motion)” value amounted to 15.0 ± 0.5 kJ mol^–1, the “kex^298 (water exchange rate constant)” value is on record as 0.46 × 10^7 s^–1, the “kex^298 (water exchange rate)” value was 0.46 ± 0.02 10^7 s^–1 and the “ΔH^‡ (activation enthalpy for the water exchange)” value stood at 28.7 ± 1.36 kJ mol^–1. Further, in data set [2], the “ΔS^‡ (activation entropy for the water exchange)” value is “–21 ± 5 J mol^–1K^–1”, the “Δ^2 (trace of the square of the transient ZFS tensor)” value was 164 ± 10 10^18 s^–2, the “τrH^298 (rotational correlation time)” value turned out to be 35 ± 4 ps and the “τv^298 (correlation time for modulation of ZFS)” value was determined as 8 ± 1 ps. Besides, in data set [3], the water solubility result is reported as “water-soluble”.

On to `O.[Mn+2].c1cc2nc(c1)CN(Cc1nc3ccccc3[nH]1)CCOCCOCCNC2` [MnL3], for which, in data set [1], the “AO/ℏ (scalar coupling constant)” value is 38.6 ^e 10^6 rad s^–1. Further, in data set [2], the “ErH (activation energy for the rotational motion)” value is 15.0 ± 0.5 kJ mol^–1, the “kex^298 (water exchange rate constant)” value is recorded as 0.23 × 10^7 s^–1, the “kex^298 (water exchange rate)” value is 0.23 ± 0.02 10^7 s^–1 and the “ΔH^‡ (activation enthalpy for the water exchange)” value is on record as 28.5 ± 2.5 kJ mol^–1. Also, in data set [2], the “ΔS^‡ (activation entropy for the water exchange)” value was “–27 ± 7 J mol^–1K^–1”, the “Δ^2 (trace of the square of the transient ZFS tensor)” value is 100 ± 10 10^18 s^–2, the “τrH^298 (rotational correlation time)” value is recorded as 45 ± 2 ps and the “τv^298 (correlation time for modulation of ZFS)” value came out at 13 ± 3 ps. Moreover, the water solubility result in data set [3] is “water-soluble”.
